In patent US20080260774A1, “Alpha-galactosyl ceramide analogs and their use as immunotherapies” (priority 2007, published 2008):
Entries after “also recorded” stand apart in the source; their conditions may differ.

Legend:
[1] = test system: syngeneic lung cancer (TC1) cells; test: Lung cancer model in mice (TC1, IV inoculation); assay type: in vivo, mouse; settings: for anti-cancer efficacy compared with C1: IV administration
BALB/c mice [2] = test: Expansion/activation of mouse splenocyte subpopulations 72 h after injection; assay type: in vivo; settings: for total and mature DCs: FIGS. 26B, 28B and 30B; for total and mature DCs / activation of B cells: compared with C1; for CD8^+/CD4^+ ratio: FIGS. 26H, 28H and 30H; for expansion of splenocytes: IV administration; for CD4^+ T cells / CD8^+ T cells: SubQ route; for B cell expansion/activation / CD8^+ T cell expansion/activation / NK and NKT expansion/activation / expansion/activation of NKs and NKTs: mouse, in vivo; for activation of B cells: IM route
[3] = test system: syngeneic breast cancer (4T1); test: Breast cancer model in mice (4T1, SubQ inoculation); assay type: in vivo, mouse; settings: for effects on survival compared with C1 / suppression of tumor size compared with C1 / tumor growth and survival compared to control: SubQ delivery
[4] = test system: FLU-A virus serotype H1N1 (WSN); test: Influenza virus H1N1 (WSN) infection in BALB/c mice; settings: mouse, in vivo
naïve CD161^+/CD3^+ NKTs = test: Human NKT TCR activation (phosphoproteins), glycolipid presented by HeLa, HeLa-CD1d or iDCs, 10 μg/ml; assay type: cell-based; settings: for TCR activation: CD1d-dependent, HeLa-CD1d or DCs; for intracellular phospho-CD3ε / phospho-CREB / phospho-ERK1/2: 10 μg/ml
[5] = test system: FLU-A virus serotype H1N1 (WSN); test: Cytopathetic effect / virus titer in MDCK cells infected with H1N1 (WSN); assay type: cell-based
Protocol: FIG. 60(A-B) show the cytopathetic effect (CPE) of Madin-Darby canine kidney (MDCK) cells in vitro. MDCK cells were pretreated with vehicle, α-GalCer or one of the α-GalCer analogs C13, C14 or C16 at 10 μg/ml for four hours, followed by infection with FLU-A virus serotype H1N1 (WSN) at 10TCID50.
BALB/c mice were treated via intranasal route with control, α-GalCer (C1) or the α-GalCer analogs C13, C14 or C16 at one hour prior to virus challenge with H1N1 (WSN). […] In general, certain α-GalCer analogs may exert direct anti-viral effects, or act indirectly via immune stimulation. […] MDCK cells were pretreated with vehicle, α-GalCer or one of the α-GalCer analogs C13, C14 or C16 at 10 μg/ml for four hours, followed by infection with FLU-A virus serotype H1N1 (WSN) at 10TCID50.

[6] = test system: human monocyte-derived DCs; test: Maturation of human monocyte-derived dendritic cells
BALB/c mice [7] = test: Mouse serum cytokines/chemokines after IV, SubQ or IM injection; assay type: in vivo; settings: for IFN-γ/IL-4 ratio (TH1/TH2 bias): 2 hours, compared with C1; for serum IL-2, IL-12, MIP-1β and MCP-1: IV administration
[8] = test system: human naïve NKTs (CD161^+CD3^+); test: Cytokine/chemokine secretion by human naïve CD161+CD3+ NKTs co-cultured with autologous immature CD14+ DCs; assay type: cell-based; settings: for secretion of IFN-γ / induction of IL-3, GM-CSF and IL-15: 10 μg/ml, 18 hour culture
[9] = test system: H5 of avian influenza viruses (pHA); assay type: in vivo, mouse; settings: mouse, in vivo
Sphingomonas capsulata = test: Antibacterial efficacy in Sphingomonas capsulata infected mice; assay type: in vivo, mouse; settings: for CFU numbers in liver: 100 μg/kg IP, 24 hour after bacterial infection
Source text: Sphingomonas capsulata is a common environmental bacterial strain that is found in many places such as the air and water. It can be easily identified on nutrient agar plates because of its yellow colony color. […] Since the antibacterial activities of glycolipid antigens are mediated through the activation of NKT cells by glycolipid bound-CD1-d molecules, evaluation of the antibacterial efficacies using the disease model of Sphingomonas capsulata infection will focus on the impact of the NKT mediated pathway that is activated by glycolipid bindings. Six to eight week old female C57BL/6 mice were injected IP with Sphingomonas capsulate cells. […] Twenty-four hours after bacterial infection, livers were removed from mice and homogenized. Colony formation units (CFU) of Sphingomonas capsulate in liver homogenates were determined by plating diluted samples on nutrient plates. Colonies were counted after incubation for 48 hours at 37° C. […] To confirm the antibacterial efficacies of these α-GalCer analogs, another study was conducted to repeat the study by treating infected mice with 50 μg/kg in the same disease model. […] Six to eight week old female C57BL/6 mice were injected IP with 5×10^8 Sphingomonas capsulate cells. Mice were grouped into treatment and control groups with 4-6 mice per group. Four hours after the infection, mice in the treatment group were injected IP with testing α-GalCer analogs at 50 or 100 μg/kg, and the control group mice were injected with same volumes of PBS. Twenty-four hours after bacterial infection, mice from all groups were sacrificed. Livers were removed from mice and homogenized in 0.9% NaCl, 0.02% Tween 80 using tissue homogenizers. Colony formation units (CFU) of Sphingomonas capsulate in liver homogenates were determined by plating diluted samples on nutrient plates. Colonies were counted after incubation for 48 hours at 37° C.

tetanus toxoid (TT) = settings: mouse, in vivo
[10] = test system: extracellular domain of the M2 protein of the H1N1 subtype of the Influenza A virus; settings: mouse, in vivo
[11] = test system: primary naïve human iNKTs; test: Cytokine production by primary naïve human iNKTs cultured with autologous immature DCs; assay type: cell-based; settings: compared with C11
C57BL/6 mice = test: Expansion of NKT subsets in spleens of C57BL/6 mice; assay type: in vivo; settings: C57BL/6 Wt, 72 h post IV injection, 0.1 μg per mouse

| SMILES | anti-cancer efficacy compared with C1 [1] | total and mature DCs (BALB/c mice [2]) | CD8^+/CD4^+ ratio (BALB/c mice [2]) | expansion of splenocytes (BALB/c mice [2]; 72 hours) | CD4^+ T cells (BALB/c mice [2]) | CD8^+ T cells (BALB/c mice [2]) | B cell expansion/activation (BALB/c mice [2]) | CD8^+ T cell expansion/activation (BALB/c mice [2]) | NK and NKT expansion/activation (BALB/c mice [2]) | expansion/activation of NKs and NKTs (BALB/c mice [2]) | effects on survival compared with C1 [3] | suppression of tumor size compared with C1 [3] | tumor growth and survival compared to control [3] | survival [4] | TCR activation (naïve CD161^+/CD3^+ NKTs) | intracellular phospho-CD3ε (naïve CD161^+/CD3^+ NKTs; presented by DCs) | intracellular phospho-CD3ε (naïve CD161^+/CD3^+ NKTs; presented by HeLa-CD1d cells) | phospho-ERK1/2 (naïve CD161^+/CD3^+ NKTs; with DCs) | serum IL-2, IL-12, MIP-1β and MCP-1 (BALB/c mice [7]) | secretion of IFN-γ ([8]; compared with α-GalCer) | also measured |
| --- | --- | --- | --- | --- | --- | --- | --- | --- | --- | --- | --- | --- | --- | --- | --- | --- | --- | --- | --- | --- | --- |
| CCCCCCCCCCCCCCCCCCCCCCCCCC(=O)N[C@@H](CO[C@H]1O[C@H](CO)[C@H](O)[C@H](O)[C@H]1O)[C@H](O)[C@H](O)CCc1ccccc1 [C13] | significantly greater anti-cancer efficacy than C1 | significantly greater rises in total and mature DCs than C1 | more potent than C1 | greater potency than C1 | more active over control | more activity than C1 | significant activities | more active than C1 | comparable activities as C1 | best capacity for expansion/activation of NKs and NKTs | did not differ significantly from that of C1 | significantly greater suppression of tumor size than C1 | able to suppress tumor growth and prolong survival as compared to control | significantly enhanced survival | stronger in TCR activation than compounds C1 and C17 | 17.3 folds | 7.3 folds of control | 35 folds | striking rises in IL-2, IL-12, MIP-1β and MCP-1 | significantly greater secretion of IFN-γ than α-GalCer | splenocyte expansion (BALB/c mice [2]; IM administration, 72 hours): greater effects than C1; cumulative proportion of survival [4]: prolonged survival; phospho-CREB (naïve CD161^+/CD3^+ NKTs; presented by DCs): 158 folds increase; phospho-CREB (naïve CD161^+/CD3^+ NKTs; presented by HeLa-CD1d cells): 41 folds expression; phospho-ERK1/2 (naïve CD161^+/CD3^+ NKTs; with HeLa-CD1d cells): 6.6 folds increase; entry/replication of H1N1 virus (virus titer) [5]: slight inhibition of the entry/replication of H1N1 virus in vitro; maturation of human monocyte-derived DCs [6]: promotes maturation of human monocyte-derived DCs; IFN-γ/IL-4 ratio (TH1/TH2 bias) (BALB/c mice [7]; IV route): less TH2 responses than C1; induction of chemokines ([8]; compared with α-GalCer): striking increase in chemokines such as MIP-11, MCP-1, and IL-8; IFN/IL-4 ratio (TH1/TH2 bias) ([8]; normalized to DMSO control): more TH1-biased; adjuvant activities in enhancing the anti-HAc antibody titer [9]: better adjuvant activities than the others in enhancing the antibody titer; effectiveness as adjuvant [9]: particularly effective as adjuvants |
| CCCCCCCCCCCCCC[C@@H](O)[C@@H](O)[C@H](CO[C@H]1O[C@H](CO)[C@H](O)[C@H](O)[C@H]1O)NC(=O)CCCCCCCCCCc1ccccc1 [C16] | significantly greater anti-cancer efficacy than C1 | significantly greater rises in total and mature DCs than C1 | more potent than C1 | greater potency than C1 | more active over control | more activity than C1 | – | comparable activities as C1; also recorded: more active than C1 | comparable activities as C1 | best capacity for expansion/activation of NKs and NKTs | did not differ significantly from that of C1 | significantly greater suppression of tumor size than C1 | able to suppress tumor growth and prolong survival as compared to control | – | – | – | – | – | striking rises in IL-2, IL-12, MIP-1β and MCP-1 | significantly greater secretion of IFN-γ than α-GalCer | B cell expansion (BALB/c mice [2]; FIGS. 26E, 28E and 30E): most effective in B cell expansion; activation of B cells (BALB/c mice [2]): stronger activations of B cells than C1; cumulative proportion of survival ([4]; ip): prolonged survival; entry/replication of H1N1 virus (virus titer) [5]: slight inhibition of the entry/replication of H1N1 virus in vitro; antibacterial efficacies (CFU in liver) (Sphingomonas capsulata; 50 μg/kg): significant in comparison to the untreated group; CFU numbers in liver (Sphingomonas capsulata): significantly lower than the control group; IFN-γ/IL-4 ratio (TH1/TH2 bias) (BALB/c mice [7]; IV route): less TH2 responses than C1; serum level of IFN-γ (BALB/c mice [7]; IV route, over 72 hours): level of activity close to that of C1; induction of IL-3, GM-CSF and IL-15 [8]: greater induction of IL-3, granulocyte/macrophage colony-stimulating factor (GM-CSF), and IL-15 |
| CCCCCCCCCCCCCC[C@@H](O)[C@@H](O)[C@H](CO[C@H]1O[C@H](CO)[C@H](O)[C@H](O)[C@H]1O)NC(=O)CCCCCCCc1ccccc1 [C11] | – | – | more potent than C1 | – | – | more activity than C1 | significant activities | – | comparable activities as C1 | – | – | – | able to suppress tumor growth and prolong survival as compared to control | significantly enhanced survival | stronger in TCR activation than compounds C1 and C17 | 21.3 folds | 10 folds of control | 48.3 folds | striking rises in IL-2, IL-12, MIP-1β and MCP-1 | significantly greater secretion of IFN-γ than α-GalCer | tumor nodules on the lung surface ([1]; sacrificed on day 16 after tumor inoculation): reduced number of tumor nodules on the lung surface; activation of B cells (BALB/c mice [2]): stronger activations of B cells than C1; tumor size ([3]; 16 days after treatment): reduced tumor size; phospho-ERK1/2 (naïve CD161^+/CD3^+ NKTs; with HeLa-CD1d cells): 14.6 folds increase; antibacterial efficacies (CFU in liver) (Sphingomonas capsulata; 50 μg/kg): significant in comparison to the untreated group; difference in the values of the CFU per gram liver among efficacious groups (Sphingomonas capsulata; 50 μg/kg): not statistically significant; CFU numbers in liver (Sphingomonas capsulata): significantly lower than the control group; antibody response relative to conventional vaccine (tetanus toxoid (TT)): ~2 fold; durability of adjuvant effects (tetanus toxoid (TT)): remarkably durable; level of antibody after delayed boost compared with TT+Alum (tetanus toxoid (TT)): twice as high as those given TT+Alum; induction of IL-3, GM-CSF and IL-15 [8]: greater induction of IL-3, granulocyte/macrophage colony-stimulating factor (GM-CSF), and IL-15; adjuvant effect (comparison) [10]: best adjuvant effect which was equivalent to complete Freund's adjuvant (CFA); titer relative to C1 [10]: 3 fold |
| CCCCCCCCCCCCCC[C@@H](O)[C@@H](O)[C@H](CO[C@H]1O[C@H](CO)[C@H](O)[C@H](O)[C@H]1O)NC(=O)CCCCCCCCCCc1ccc(-c2ccccc2)cc1 [C26] | – | – | – | – | – | – | – | – | – | – | – | – | – | – | – | – | – | – | – | – | IFN-γ/IL4 ratio [11]: higher IFN-γ/IL4 ratio; IL-2 [11]: higher levels of IL-2; adjuvant activities in enhancing the anti-HAc antibody titer [9]: better adjuvant activities than the others in enhancing the antibody titer; anti-HA-specific IgG antibody [9]: enhanced; effectiveness as adjuvant [9]: particularly effective as adjuvants; total number of NKTs and its two subtypes NKT1 and NKT2 (C57BL/6 mice): increase of total number of NKTs |
